Test results: ChEMBL document CHEMBL3885861, “Open TG-GATES”

Organism: Rattus norvegicus
Experiment: Open TG-GATES - Regimen: Single
Type: toxicity, organism-based, Sprague-Dawley
Design: regimen Single, gender Male, age 6 weeks
Details: in vivo, po, 30 mg/kg, route gavage, dose level Middle; for APTT / Bas / Eos / Fbg / Hb / Ht / Lym / MCH / MCHC / MCV / Mono / Neu / PT / Plat / RBC / Ret / WBC: tissue Blood; for KIDNEY_L / KIDNEY_R / KIDNEY_TOTAL: tissue Kidney; for LIVER: tissue Liver; for A/G / ALP / ALT / AST / BUN / CRE / Ca / Cl / DBIL / GLC / IP / K / LDH / Na / PL / RALB / TBIL / TC / TG / TP / gamma-GTP: tissue Plasma

Molecule CC1=C(/C=C/C(C)=C/C=C/C(C)=C/CO)C(C)(C)CCC1 [RETINOL] has a TERMINAL_BW (3 h) of 204 g, an APTT (3 h) of 21.5 s and a Bas (3 h) of 0%. It also gave an Eos (3 h) of 1.2%, a Fbg (3 h) of 295.2 mg/dL and a Hb (3 h) of 13.2 g/dL. It also gave a Ht (3 h) of 38.6%, a Lym (3 h) of 77.6% and an MCH (3 h) of 21.6 pg. The MCHC (3 h) was 34.1%, the MCV (3 h) was 63.4 fL and the Mono (3 h) was 3%. For the same molecule, the Neu (3 h) was 17.6%, the PT (3 h) was 15.9 s and the Plat (3 h) was 124.8 x10_4/uL. For the same molecule, the RBC (3 h) was 609.8 x10_4/ul, the Ret (3 h) was 8.3% and the WBC (3 h) was 84.2 x10_2/uL. For the same molecule, the KIDNEY_L (3 h) was 0.9 g, the KIDNEY_R (3 h) was 0.9 g and the KIDNEY_TOTAL (3 h) was 1.8 g. The LIVER (3 h) was 9.3 g, the A/G (3 h) was 1.3 and the ALP (3 h) was 1939.2 IU/L. For the same molecule, the ALT (3 h) was 48.2 IU/L, the AST (3 h) was 80 IU/L and the BUN (3 h) was 13.4 mg/dL. For the same molecule, the CRE (3 h) was 0.1 mg/dL, the Ca (3 h) was 11.3 mg/dL and the Cl (3 h) was 106.2 meq/L. The DBIL (3 h) was 0 mg/dL, the GLC (3 h) was 176.4 mg/dL and the IP (3 h) was 9 mg/dL. The K (3 h) was 4.2 meq/L, the LDH (3 h) was 231 IU/L and the Na (3 h) was 141.2 meq/L. The PL (3 h) was 165.4 mg/dL, the RALB (3 h) was 3.1 g/dL and the TBIL (3 h) was 0.004 mg/dL. It also gave a TC (3 h) of 83.2 mg/dL, a TG (3 h) of 153.8 mg/dL and a TP (3 h) of 5.7 g/dL. The gamma-GTP (3 h) was 3.6 IU/L, the TERMINAL_BW (6 h) was 195.5 g and the APTT (6 h) was 21.5 s. It also gave a Bas (6 h) of 0%, an Eos (6 h) of 0.8% and a Fbg (6 h) of 302.4 mg/dL. It also gave a Hb (6 h) of 13.4 g/dL, a Ht (6 h) of 38.7% and a Lym (6 h) of 77.8%. The MCH (6 h) was 21.1 pg, the MCHC (6 h) was 34.5% and the MCV (6 h) was 61.2 fL. It also gave a Mono (6 h) of 2.8%, a Neu (6 h) of 17.8% and a PT (6 h) of 15.5 s. The Plat (6 h) was 119.2 x10_4/uL, the RBC (6 h) was 633.8 x10_4/ul and the Ret (6 h) was 7.3%. It also gave a WBC (6 h) of 101.4 x10_2/uL, a KIDNEY_L (6 h) of 0.9 g and a KIDNEY_R (6 h) of 0.9 g. The KIDNEY_TOTAL (6 h) was 1.8 g, the LIVER (6 h) was 8.2 g and the A/G (6 h) was 1.2. The ALP (6 h) was 1586.8 IU/L, the ALT (6 h) was 36.2 IU/L and the AST (6 h) was 72.2 IU/L. For the same molecule, the BUN (6 h) was 8.8 mg/dL, the CRE (6 h) was 0.1 mg/dL and the Ca (6 h) was 10.8 mg/dL. For the same molecule, the Cl (6 h) was 107.6 meq/L, the DBIL (6 h) was 0.004 mg/dL and the GLC (6 h) was 176.8 mg/dL. For the same molecule, the IP (6 h) was 9.8 mg/dL, the K (6 h) was 4.4 meq/L and the LDH (6 h) was 224.8 IU/L. It also gave a Na (6 h) of 142 meq/L, a PL (6 h) of 146.2 mg/dL and an RALB (6 h) of 3.1 g/dL. It also gave a TBIL (6 h) of 0.01 mg/dL, a TC (6 h) of 74.6 mg/dL and a TG (6 h) of 119.6 mg/dL. The TP (6 h) was 5.6 g/dL, the gamma-GTP (6 h) was 1 IU/L and the TERMINAL_BW (9 h) was 195.6 g. For the same molecule, the APTT (9 h) was 21.7 s, the Bas (9 h) was 0% and the Eos (9 h) was 1%. For the same molecule, the Fbg (9 h) was 317 mg/dL, the Hb (9 h) was 13.3 g/dL and the Ht (9 h) was 38.5%. It also gave a Lym (9 h) of 75.2%, an MCH (9 h) of 21.3 pg and an MCHC (9 h) of 34.5%. For the same molecule, the MCV (9 h) was 61.8 fL, the Mono (9 h) was 2.8% and the Neu (9 h) was 21%. For the same molecule, the PT (9 h) was 15.5 s, the Plat (9 h) was 115.9 x10_4/uL and the RBC (9 h) was 623.4 x10_4/ul. It also gave a Ret (9 h) of 7.7%, a WBC (9 h) of 94.3 x10_2/uL and a KIDNEY_L (9 h) of 0.9 g. The KIDNEY_R (9 h) was 0.9 g, the KIDNEY_TOTAL (9 h) was 1.8 g and the LIVER (9 h) was 8.3 g. It also gave an A/G (9 h) of 1.3, an ALP (9 h) of 1640.4 IU/L and an ALT (9 h) of 33 IU/L. The AST (9 h) was 67.4 IU/L, the BUN (9 h) was 10 mg/dL and the CRE (9 h) was 0.2 mg/dL. The Ca (9 h) was 11 mg/dL, the Cl (9 h) was 106 meq/L and the DBIL (9 h) was 0.008 mg/dL. The GLC (9 h) was 181 mg/dL, the IP (9 h) was 11.1 mg/dL and the K (9 h) was 4.2 meq/L. The LDH (9 h) was 253.4 IU/L, the Na (9 h) was 141.2 meq/L and the PL (9 h) was 136 mg/dL. It also gave an RALB (9 h) of 3.1 g/dL, a TBIL (9 h) of 0.014 mg/dL and a TC (9 h) of 72 mg/dL. It also gave a TG (9 h) of 82.6 mg/dL, a TP (9 h) of 5.5 g/dL and a gamma-GTP (9 h) of 1 IU/L. It also gave a TERMINAL_BW (24 h) of 208 g, an APTT (24 h) of 21.8 s and a Bas (24 h) of 0%. The Eos (24 h) was 0.6%, the Fbg (24 h) was 303.2 mg/dL and the Hb (24 h) was 13.1 g/dL. For the same molecule, the Ht (24 h) was 38.6%, the Lym (24 h) was 79.4% and the MCH (24 h) was 21.5 pg. It also gave an MCHC (24 h) of 34.1%, an MCV (24 h) of 63.1 fL and a Mono (24 h) of 3%. It also gave a Neu (24 h) of 16.2%, a PT (24 h) of 15.9 s and a Plat (24 h) of 124 x10_4/uL. For the same molecule, the RBC (24 h) was 612.6 x10_4/ul, the Ret (24 h) was 7.8% and the WBC (24 h) was 76.3 x10_2/uL. It also gave a KIDNEY_L (24 h) of 0.9 g, a KIDNEY_R (24 h) of 0.9 g and a KIDNEY_TOTAL (24 h) of 1.9 g. The LIVER (24 h) was 10.1 g, the A/G (24 h) was 1.4 and the ALP (24 h) was 1811.2 IU/L. It also gave an ALT (24 h) of 42.6 IU/L, an AST (24 h) of 75.8 IU/L and a BUN (24 h) of 16.6 mg/dL. The CRE (24 h) was 0.2 mg/dL, the Ca (24 h) was 10.8 mg/dL and the Cl (24 h) was 107.2 meq/L. The DBIL (24 h) was 0.002 mg/dL, the GLC (24 h) was 193 mg/dL and the IP (24 h) was 7.2 mg/dL. It also gave a K (24 h) of 4.2 meq/L, an LDH (24 h) of 242.4 IU/L and a Na (24 h) of 141.6 meq/L. It also gave a PL (24 h) of 148.2 mg/dL, an RALB (24 h) of 3.2 g/dL and a TBIL (24 h) of 0.006 mg/dL. It also gave a TC (24 h) of 74.2 mg/dL, a TG (24 h) of 114 mg/dL and a TP (24 h) of 5.6 g/dL. The gamma-GTP (24 h) was 1.2 IU/L.
